Reference: patent US20120121591A1 (priority 2009, published 2012)
Read-outs that look alike come from different tables or passages of the source.

Assays:
Assay type in all cases: cell-based
hKv1.3 = hKv1.3 (Homo sapiens, UniProt P22001); test: cell-based
[1] = system: IL-2 secretion from T cells in human whole blood; conditions: read-out: WB (IL-2) IC50 (nM, Avg)
[2] = system: IFN-g secretion from T cells in human whole blood
[3] = read-out: WB (IFNg) IC50 (nM, Avg)

Sequence of hKv1.3 (P22001 whole entry): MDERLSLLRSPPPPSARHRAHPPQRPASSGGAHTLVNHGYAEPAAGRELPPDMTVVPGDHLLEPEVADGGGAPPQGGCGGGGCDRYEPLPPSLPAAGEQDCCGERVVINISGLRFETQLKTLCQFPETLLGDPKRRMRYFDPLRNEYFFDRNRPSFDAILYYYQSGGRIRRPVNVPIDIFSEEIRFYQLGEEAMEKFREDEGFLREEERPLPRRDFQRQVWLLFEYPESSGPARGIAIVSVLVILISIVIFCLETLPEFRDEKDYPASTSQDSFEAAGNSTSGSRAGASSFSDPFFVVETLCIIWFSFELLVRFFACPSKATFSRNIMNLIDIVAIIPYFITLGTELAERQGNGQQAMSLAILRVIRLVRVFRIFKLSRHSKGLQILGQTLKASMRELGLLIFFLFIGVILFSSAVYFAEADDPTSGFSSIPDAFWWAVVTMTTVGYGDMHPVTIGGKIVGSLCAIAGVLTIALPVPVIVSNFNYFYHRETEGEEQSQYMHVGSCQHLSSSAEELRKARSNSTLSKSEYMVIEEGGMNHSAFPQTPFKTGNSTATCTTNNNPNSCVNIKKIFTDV

| Compound | IC50 (hKv1.3; Kv1.3 (IWQ) IC50 (nM, Avg)) [nM] | IC50 [1] [nM] | IC50 [2, 3] [nM] | also measured |
| --- | --- | --- | --- | --- |
| 20kDaPEG-[-Nal16]ShK (RSCIDTIPKSRCTAFXCKHSMKYRLSFCRKTCGTC; 20 kDa PEG; 1-Nal16; ShK PEGylated toxin peptide analog; PEGylated; 3-(1-naphthyl)alanine) |  |  |  | IC50 (hKv1.3; read-out: Kv1.3 (IWQ) IC50 (nM, Avg)): 39.1 nM |
| CC[C@H](C)[C@@H]1NC(=O)[C@@H](NC(=O)[C@H](CO)NC(=O)[C@@H](N)CCCNC(=N)N)CSSC[C@@H](C(=O)O)NC(=O)[C@H]([C@@H](C)O)NC(=O)CNC(=O)[C@@H]2CSSC[C@@H]3NC(=O)[C@H](CCC(N)=O)NC(=O)[C@H](Cc4ccccc4)NC(=O)[C@H](C)NC(=O)[C@H]([C@@H](C)O)NC(=O)[C@H](CSSC[C@H](NC(=O)[C@H](Cc4ccccc4)NC(=O)[C@H](CO)NC(=O)[C@H](CC(C)C)NC(=O)[C@H](CCCNC(=N)N)NC(=O)[C@H](Cc4ccc(O)cc4)NC(=O)[C@H](CCCCN)NC(=O)[C@H](CCSC)NC(=O)[C@H](Cc4cccc5ccccc45)NC(=O)[C@H](Cc4cnc[nH]4)NC(=O)[C@H](CCCCN)NC3=O)C(=O)N[C@@H](CCCNC(=N)N)C(=O)N[C@@H](CCCCN)C(=O)N[C@@H]([C@@H](C)O)C(=O)N2)NC(=O)[C@H](CCCNC(=N)N)NC(=O)[C@H](CO)NC(=O)[C@H](CCCCN)NC(=O)[C@@H]2CCCN2C(=O)[C@H]([C@@H](C)CC)NC(=O)[C@H]([C@@H](C)O)NC(=O)[C@H](CC(=O)O)NC1=O [[1-Nal20]ShK] | 2.11 |  |  |  |
| CC[C@H](C)[C@@H]1NC(=O)[C@@H](NC(=O)[C@H](CO)NC(=O)[C@@H](N)CCCNC(=N)N)CSSC[C@@H](C(=O)O)NC(=O)[C@H](Cc2cccc3ccccc23)NC(=O)CNC(=O)[C@@H]2CSSC[C@@H]3NC(=O)[C@H](CCC(N)=O)NC(=O)[C@H](Cc4ccccc4)NC(=O)[C@H](C)NC(=O)[C@H]([C@@H](C)O)NC(=O)[C@H](CSSC[C@H](NC(=O)[C@H](Cc4ccccc4)NC(=O)[C@H](CO)NC(=O)[C@H](CC(C)C)NC(=O)[C@H](CCCNC(=N)N)NC(=O)[C@H](Cc4ccc(O)cc4)NC(=O)[C@H](CCCCN)NC(=O)[C@H](CCSC)NC(=O)[C@H](CO)NC(=O)[C@H](Cc4cnc[nH]4)NC(=O)[C@H](CCCCN)NC3=O)C(=O)N[C@@H](CCCNC(=N)N)C(=O)N[C@@H](CCCCN)C(=O)N[C@@H]([C@@H](C)O)C(=O)N2)NC(=O)[C@H](CCCNC(=N)N)NC(=O)[C@H](CO)NC(=O)[C@H](CCCCN)NC(=O)[C@@H]2CCCN2C(=O)[C@H]([C@@H](C)CC)NC(=O)[C@H]([C@@H](C)O)NC(=O)[C@H](CC(=O)O)NC1=O [[1-Nal34]ShK] | 0.077 |  |  |  |
| CC[C@H](C)[C@@H]1NC(=O)[C@@H](NC(=O)[C@H](CO)NC(=O)[C@@H](N)CCCNC(=N)N)CSSC[C@@H](C(=O)O)NC(=O)[C@H]([C@@H](C)O)NC(=O)CNC(=O)[C@@H]2CSSC[C@@H]3NC(=O)[C@H](CCC(N)=O)NC(=O)[C@H](Cc4ccccc4)NC(=O)[C@H](C)NC(=O)[C@H]([C@@H](C)O)NC(=O)[C@H](CSSC[C@H](NC(=O)[C@H](Cc4ccccc4)NC(=O)[C@H](CO)NC(=O)[C@H](CC(C)C)NC(=O)[C@H](CCCNC(=N)N)NC(=O)[C@H](Cc4ccc(O)cc4)NC(=O)[C@H](CCCNC(=N)N)NC(=O)[C@H](CCSC)NC(=O)[C@H](CO)NC(=O)[C@H](Cc4cnc[nH]4)NC(=O)[C@H](CCCCN)NC3=O)C(=O)N[C@@H](CCCNC(=N)N)C(=O)N[C@@H](CCCCN)C(=O)N[C@@H]([C@@H](C)O)C(=O)N2)NC(=O)[C@H](CCCNC(=N)N)NC(=O)[C@H](CO)NC(=O)[C@H](CCCCN)NC(=O)[C@@H]2CCCN2C(=O)[C@H]([C@@H](C)CC)NC(=O)[C@H]([C@@H](C)O)NC(=O)[C@H](CC(=O)O)NC1=O [[Arg22]ShK] | 18.7 |  |  |  |
| CC[C@H](C)[C@@H]1NC(=O)[C@@H](NC(=O)[C@H](CO)NC(=O)[C@@H](N)CCCNC(=N)N)CSSC[C@@H](C(=O)O)NC(=O)[C@H](CCCNC(=N)N)NC(=O)CNC(=O)[C@@H]2CSSC[C@@H]3NC(=O)[C@H](CCC(N)=O)NC(=O)[C@H](Cc4ccccc4)NC(=O)[C@H](C)NC(=O)[C@H]([C@@H](C)O)NC(=O)[C@H](CSSC[C@H](NC(=O)[C@H](Cc4ccccc4)NC(=O)[C@H](CO)NC(=O)[C@H](CC(C)C)NC(=O)[C@H](CCCNC(=N)N)NC(=O)[C@H](Cc4ccc(O)cc4)NC(=O)[C@H](CCCCN)NC(=O)[C@H](CCSC)NC(=O)[C@H](CO)NC(=O)[C@H](Cc4c[nH]cn4)NC(=O)[C@H](CCCCN)NC3=O)C(=O)N[C@@H](CCCNC(=N)N)C(=O)N[C@@H](CCCCN)C(=O)N[C@@H]([C@@H](C)O)C(=O)N2)NC(=O)[C@H](CCCNC(=N)N)NC(=O)[C@H](CO)NC(=O)[C@H](CCCCN)NC(=O)[C@@H]2CCCN2C(=O)[C@H]([C@@H](C)CC)NC(=O)[C@H]([C@@H](C)O)NC(=O)[C@H](CC(=O)O)NC1=O [[Arg34]ShK] |  | 0.418 | 0.486 |  |
| CCCC[C@@H]1NC(=O)[C@H](CO)NC(=O)[C@H](Cc2c[nH]cn2)NC(=O)[C@H](CCC(=O)O)NC(=O)[C@@H]2CSSC[C@@H]3NC(=O)[C@H]([C@@H](C)O)NC(=O)[C@H](CCCNC(=N)N)NC(=O)[C@H](CCCNC(=N)N)NC(=O)[C@H](CSSC[C@H](NC(=O)[C@H](CCCNC(=N)N)NC(=O)[C@H](CO)NC(=O)[C@H](CCCCN)NC(=O)[C@@H]4CCCN4C(=O)[C@H]([C@@H](C)CC)NC(=O)[C@H]([C@@H](C)O)NC(=O)[C@H](CC(=O)O)NC(=O)[C@H](CCC(=O)O)NC(=O)[C@@H](NC(=O)[C@H](CO)NC(=O)[C@@H](N)CCCNC(=N)N)CSSC[C@@H](C(N)=O)NC(=O)[C@H]([C@@H](C)O)NC(=O)CNC3=O)C(=O)N[C@@H]([C@@H](C)O)C(=O)N[C@@H](C)C(=O)N[C@@H](Cc3ccccc3)C(=O)N[C@@H](CCCCN)C(=O)N2)NC(=O)[C@H](Cc2ccccc2)NC(=O)[C@H](CO)NC(=O)[C@H](CC(C)C)NC(=O)[C@H](CCCNC(=N)N)NC(=O)[C@H](Cc2ccc(O)cc2)NC(=O)[C@H](CCCCN)NC1=O [[Glu4,18, Lys16,Nle21, Arg30]ShK-amide] |  | 0.97 | 1.99 |  |
| CC[C@H](C)[C@@H]1NC(=O)[C@@H](NC(=O)[C@H](CO)NC(=O)[C@@H](N)CCCNC(=N)N)CSSC[C@@H](C(=O)O)NC(=O)[C@H]([C@@H](C)O)NC(=O)CNC(=O)[C@@H]2CSSC[C@@H]3NC(=O)[C@H](CCC(N)=O)NC(=O)[C@H](Cc4ccccc4)NC(=O)[C@H](CCC(=O)O)NC(=O)[C@H]([C@@H](C)O)NC(=O)[C@H](CSSC[C@H](NC(=O)[C@H](Cc4ccccc4)NC(=O)[C@H](CO)NC(=O)[C@H](CC(C)C)NC(=O)[C@H](CCCNC(=N)N)NC(=O)[C@H](Cc4ccc(O)cc4)NC(=O)[C@H](CCCCN)NC(=O)[C@H](CCSC)NC(=O)[C@H](CO)NC(=O)[C@H](Cc4c[nH]cn4)NC(=O)[C@H](CCCCN)NC3=O)C(=O)N[C@@H](CCCNC(=N)N)C(=O)N[C@@H](CCCCN)C(=O)N[C@@H]([C@@H](C)O)C(=O)N2)NC(=O)[C@H](CCCNC(=N)N)NC(=O)[C@H](CO)NC(=O)[C@H](CCCCN)NC(=O)[C@@H]2CCCN2C(=O)[C@H]([C@@H](C)CC)NC(=O)[C@H]([C@@H](C)O)NC(=O)[C@H](CC(=O)O)NC1=O [[Glu14]ShK] |  | 0.035 |  | IC50 ([2]; read-out: WB (IFNg) IC5- (nM, Avg)): 0.132 nM |
| CC[C@H](C)[C@@H]1NC(=O)[C@@H](NC(=O)[C@H](CO)NC(=O)[C@@H](N)CCCNC(=N)N)CSSC[C@@H](C(=O)O)NC(=O)[C@H]([C@@H](C)O)NC(=O)CNC(=O)[C@@H]2CSSC[C@@H]3NC(=O)[C@H](CCCCN)NC(=O)[C@H](Cc4ccccc4)NC(=O)[C@H](C)NC(=O)[C@H]([C@@H](C)O)NC(=O)[C@H](CSSC[C@H](NC(=O)[C@H](Cc4cccc5ccccc45)NC(=O)[C@H](CO)NC(=O)[C@H](CC(C)C)NC(=O)[C@H](CCCNC(=N)N)NC(=O)[C@H](Cc4ccc(O)cc4)NC(=O)[C@H](CCCCN)NC(=O)[C@H](CCSC)NC(=O)[C@H](CO)NC(=O)[C@H](Cc4c[nH]cn4)NC(=O)[C@H](CCCCN)NC3=O)C(=O)N[C@@H](CCCCN)C(=O)N[C@@H](CCCNC(=N)N)C(=O)N[C@@H]([C@@H](C)O)C(=O)N2)NC(=O)[C@H](CCCNC(=N)N)NC(=O)[C@H](CO)NC(=O)[C@H](CCCCN)NC(=O)[C@@H]2CCCN2C(=O)[C@H]([C@@H](C)CC)NC(=O)[C@H]([C@@H](C)O)NC(=O)[C@H](CC(=O)O)NC1=O [[Lys16,29; 1-Na127;Arg30]ShK] |  | 3.37 | 3.83 |  |
| CC[C@H](C)[C@@H]1NC(=O)[C@@H](NC(=O)[C@H](CO)NC(=O)[C@@H](N)CCCNC(=N)N)CSSC[C@@H](C(=O)O)NC(=O)[C@H]([C@@H](C)O)NC(=O)CNC(=O)[C@@H]2CSSC[C@@H]3NC(=O)[C@H](CCCCN)NC(=O)[C@H](Cc4ccccc4)NC(=O)[C@H](C)NC(=O)[C@H]([C@@H](C)O)NC(=O)[C@H](CSSC[C@H](NC(=O)[C@H](Cc4ccccc4)NC(=O)[C@H](CO)NC(=O)[C@H](CC(C)C)NC(=O)[C@H](CCCNC(=N)N)NC(=O)[C@H](Cc4ccc(O)cc4)NC(=O)[C@H](CCCCN)NC(=O)[C@H](CCSC)NC(=O)[C@H](CO)NC(=O)[C@H](Cc4c[nH]cn4)NC(=O)[C@H](CCCCN)NC3=O)C(=O)N[C@@H](CCCNC(=N)N)C(=O)N[C@@H](CCCNC(=N)N)C(=O)N[C@@H]([C@@H](C)O)C(=O)N2)NC(=O)[C@H](CCCNC(=N)N)NC(=O)[C@H](CO)NC(=O)[C@H](CCCCN)NC(=O)[C@@H]2CCCN2C(=O)[C@H]([C@@H](C)CC)NC(=O)[C@H]([C@@H](C)O)NC(=O)[C@H](CC(=O)O)NC1=O [[Lys16,Arg30]ShK] |  | 0.169 | 0.189 |  |
